# Columns and labels:
# [1] = target: human activated kallikrein enzyme (Homo sapiens, UniProt P03952); assay: Plasma kallikrein inhibition, fluorogenic PFR-AMC substrate, 500 pM activated kallikrein format; format: biochemical; settings: 500 pM activated kallikrein, 300 uM PFR-AMC, 30 min preincubation, 10 min reaction; read-out: Primary Dose Response Assay: Average EC50
# Procedure, shortened: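 High-enzyme format of the fluorogenic peptide assay, with EC50 taken from AMC signal: 500 pM activated kallikrein, 300 uM Pro-Phe-Arg-AMC, 30 min compound preincubation and 10 min reaction, all at room temperature, pH 7.5.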
# [2] = target: T1, plasma kallikrein (Homo sapiens, UniProt P03952); assay: Neat human plasma assay, FXIIa contact pathway-activated, PFR-AMC substrate; format: biochemical; settings: citrated human plasma 78% final, 10 nM human FXIIa, 100 μM PFR-AMC; read-out: Human Plasma Assay: IC90
# T1 construct: from tissue
# T1 sequence (P03952 391-638 limits assumed): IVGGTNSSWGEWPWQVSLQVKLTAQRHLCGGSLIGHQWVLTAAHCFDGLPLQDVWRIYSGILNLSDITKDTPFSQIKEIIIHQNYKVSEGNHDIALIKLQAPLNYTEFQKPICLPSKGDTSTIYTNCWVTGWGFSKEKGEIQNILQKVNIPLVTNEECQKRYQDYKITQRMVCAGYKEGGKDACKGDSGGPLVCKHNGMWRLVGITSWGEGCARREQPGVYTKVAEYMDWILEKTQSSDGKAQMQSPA
# T1 sequence (P03952 20-390 partner limits assumed): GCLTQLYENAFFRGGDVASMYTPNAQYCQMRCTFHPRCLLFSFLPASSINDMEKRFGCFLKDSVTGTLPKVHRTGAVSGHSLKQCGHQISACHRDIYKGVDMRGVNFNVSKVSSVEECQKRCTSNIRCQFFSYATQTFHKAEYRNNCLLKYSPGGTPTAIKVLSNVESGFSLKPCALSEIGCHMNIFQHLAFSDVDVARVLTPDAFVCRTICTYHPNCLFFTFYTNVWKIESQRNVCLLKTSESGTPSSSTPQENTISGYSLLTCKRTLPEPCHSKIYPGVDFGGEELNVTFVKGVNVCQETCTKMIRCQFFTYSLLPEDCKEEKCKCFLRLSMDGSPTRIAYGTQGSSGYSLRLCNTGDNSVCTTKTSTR
# Procedure, shortened: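 Compound inhibition of plasma kallikrein measured as PFR-AMC (100 μM) cleavage rate over 5 min at room temperature in 78% citrated human plasma activated with 10 nM FXIIa (Tris pH 7.5 buffer). IC50/IC90 from 4-parameter fit of rate versus inhibitor concentration.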
# Sequence of human activated kallikrein enzyme (P03952 391-638 limits assumed): as the sequence (P03952 391-638 limits assumed) above
# Sequence of human activated kallikrein enzyme (P03952 20-390 partner limits assumed): as the sequence (P03952 20-390 partner limits assumed) above
Compound,EC50 [1] [nM],IC90 [2] [nM]
"O=C(Nc1cc(NCc2cn3cc(C4CC4)cc(C4(F)COC4)c3n2)ncn1)[C@H]1C[C@@H]1c1cccc(Cl)c1 (racemic) [Example 64, rac-(1S*,2S*)-2-(3-chlorophenyl)-N-(6-(((6-cyclopropyl-8-(3-fluorooxetan-3-yl)imidazo[1,2-α]pyridin-2-yl)methyl)amino)pyrimidin-4-yl)cyclopropane-1-carboxamide]",1 to 10,> 48000
"Cc1ccnc([C@H]2C[C@@H]2C(=O)Nc2cncc(NCc3cn4cc(C5CC5)cc(N5CC(=O)N(C)C5=O)c4n3)c2)n1 (racemic) [Example 575, rac-(1S*,2S*)-N-(5-(((6-cyclopropyl-8-(3-methyl-2,4-dioxoimidazolidin-1-yl)imidazo[1,2-a]pyridin-2-yl)methyl)amino)pyridin-3-yl)-2-(4-methylpyrimidin-2-yl)cyclopropane-1-carboxamide]",< 1,< 400
"COc1ccc(C#N)c([C@H]2C[C@@H]2C(=O)Nc2cc(OCc3cn4cc(C5CC5)cc(N5CC(=O)N(C)C5=O)c4n3)cnn2)c1 (racemic) [Example 559, rac-(1S*,2S*)-2-(2-cyano-5-methoxyphenyl)-N-(5-((6-cyclopropyl-8-(3-methyl-2,4-dioxoimidazolidin-1-yl)imidazo[1,2-a]pyridin-2-yl)methoxy)pyridazin-3-yl)cyclopropane-1-carboxamide]",1 to 10,400 to 1500
"CC(=O)N(C)c1cc(C2CC2)cn2cc(CNc3ccnc(NC(=O)[C@H]4C[C@@H]4c4cccc(Cl)c4)c3)nc12 [Example 139, (1S,2S)-2-(3-chlorophenyl)-N-(4-(((6-cyclopropyl-8-(N-methylacetamido)imidazo[1,2-a]pyridin-2-yl)methyl)amino)pyridin-2-yl)cyclopropane-1-carboxamide]",< 1,400 to 1500
"O=C1CN(c2cc(C3CC3)cn3cc([C@H]4C[C@H](O)CN4c4cc(NC(=O)[C@H]5C[C@@H]5c5cc(Cl)ccn5)ncn4)nc23)C(=O)N1 [Example 475, (1S,2S)-2-(4-chloropyridin-2-yl)-N-(6-((2R,4S)-2-(6-cyclopropyl-8-(2,4-dioxoimidazolidin-1-yl)imidazo[1,2-a]pyridin-2-yl)-4-hydroxypyrrolidin-1-yl)pyrimidin-4-yl)cyclopropane-1-carboxamide]",< 1,< 400
"CN1C(=O)CN(c2cc(C3CC3)cn3cc([C@H]4C[C@H](O)CN4c4cc(NC(=O)[C@H]5C[C@@H]5c5cc(Cl)ccn5)ncn4)nc23)C1=O [Example 478, (1S,2S)-2-(4-chloropyridin-2-yl)-N-(6-((2R,4S)-2-(6-cyclopropyl-8-(3-methyl-2,4-dioxoimidazolidin-1-yl)imidazo[1,2-a]pyridin-2-yl)-4-hydroxypyrrolidin-1-yl)pyrimidin-4-yl)cyclopropane-1-carboxamide]",< 1,400 to 1500
"O=C(Nc1cc(N(CCO)Cc2cn3cc(C4CC4)ccc3n2)ccn1)[C@H]1C[C@@H]1c1cccc(Cl)c1 [Example 604, (1S,2S)-2-(3-chlorophenyl)-N-(4-(((6-cyclopropylimidazo[1,2-a]pyridin-2-yl)methyl)(2-hydroxyethyl)amino)pyridin-2-yl)cyclopropane-1-carboxamide]",1 to 10,10000 to 48000
"O=C(Nc1cc(NCc2cn3cc(C4CC4)cc(C(=O)N4CCOCC4)c3n2)ncn1)[C@H]1C[C@@H]1c1cccc(Cl)c1 [Example 300, (1S,2S)-2-(3-chlorophenyl)-N-(6-(((6-cyclopropyl-8-(morpholine-4-carbonyl)imidazo[1,2-a]pyridin-2-yl)methyl)amino)pyrimidin-4-yl)cyclopropane-1-carboxamide]",< 1,1500 to 10000
"Cc1ccnc([C@H]2C[C@@H]2C(=O)Nc2ncc(F)c(N(C)Cc3cn4cc(C5CC5)cc(N5CC(=O)NC5=O)c4n3)n2)n1 (racemic) [Example 516, rac-(1S*,2S*)-N-(4-(((6-cyclopropyl-8-(2,4-dioxoimidazolidin-1-yl)imidazo[1,2-a]pyridin-2-yl)methyl)(methyl)amino)-5-fluoropyrimidin-2-yl)-2-(4-methylpyrimidin-2-yl)cyclopropane-1-carboxamide]",< 1,< 400
"Cc1ccnc([C@H]2C[C@@H]2C(=O)Nc2cc(NCc3cn4cc(C5CC5)cc(N5CC(=O)N(C)C5=O)c4n3)nc(C3CC3)n2)n1 [Example 410, (1S,2S)-N-(2-cyclopropyl-6-(((6-cyclopropyl-8-(3-methyl-2,4-dioxoimidazolidin-1-yl)imidazo[1,2-a]pyridin-2-yl)methyl)amino)pyrimidin-4-yl)-2-(4-methylpyrimidin-2-yl)cyclopropane-1-carboxamide]",< 1,< 400
"O=C(Nc1cc(NCc2cn3cc(C4CC4)cc(N4C[C@@H]5C[C@@H]5C4=O)c3n2)ncn1)[C@H]1C[C@@H]1c1cccc(Cl)c1 (racemic) [Example 457, rac-(1S,2S)-2-(3-chlorophenyl)-N-(6-(((6-cyclopropyl-8-((1R*,5S*)-2-oxo-3-azabicyclo[3.1.0]hexan-3-yl)imidazo[1,2-a]pyridin-2-yl)methyl)amino)pyrimidin-4-yl)cyclopropane-1-carboxamide]",1 to 10,400 to 1500
"Cc1ccnc([C@H]2C[C@@H]2C(=O)Nc2cc(NC(C)c3cn4cc(Cl)cc(N5CC(=O)N(C)C5=O)c4n3)nc(C)n2)n1 (stereo partly drawn) [Example 356, (1S,2S)-N-(6-((1-(6-chloro-8-(3-methyl-2,4-dioxoimidazolidin-1-yl)imidazo[1,2-a]pyridin-2-yl)ethyl)amino)-2-methylpyrimidin-4-yl)-2-(4-methylpyrimidin-2-yl)cyclopropane-1-carboxamide]",< 1,1500 to 10000
"Cc1ccnc([C@H]2C[C@@H]2C(=O)Nc2cc(NCc3cn4cc(C5CC5)cc(N5CC(=O)N(COP(=O)(O)O)C5=O)c4n3)ncn2)n1 [Example 466, (3-(6-cyclopropyl-2-(((6-((1S,2S)-2-(4-methylpyrimidin-2-yl)cyclopropane-1-carboxamido)pyrimidin-4-yl)amino)methyl)imidazo[1,2-a]pyridin-8-yl)-2,5-dioxoimidazolidin-1-yl)methyl dihydrogen phosphate]",< 1,1500 to 10000
"COCCOCCN1C(=O)CN(c2cc(C3CC3)cn3cc(CNc4cc(NC(=O)[C@H]5C[C@@H]5c5nccc(C)n5)ncn4)nc23)C1=O [Example 382, (1S,2S)-N-(6-(((6-cyclopropyl-8-(3-(2-(2-methoxyethoxy)ethyl)-2,4-dioxoimidazolidin-1-yl)imidazo[1,2-a]pyridin-2-yl)methyl)amino)pyrimidin-4-yl)-2-(4-methylpyrimidin-2-yl)cyclopropane-1-carboxamide]",< 1,< 400
"Cc1ccnc([C@H]2C[C@@H]2C(=O)Nc2cc(NCc3cn4cc(C5CC5)cc(N5CC(=O)N(C)C5=O)c4n3)nc(C3(F)COC3)n2)n1 (racemic) [Example 114, rac-(1S*,2S*)—N-(6-(((6-cyclopropyl-8-(3-methyl-2,4-dioxoimidazolidin-1-yl)imidazo[1,2-a]pyridin-2-yl)methyl)amino)-2-(3-fluorooxetan-3-yl)pyrimidin-4-yl)-2-(4-methylpyrimidin-2-yl)cyclopropane-1-carboxamide]",1 to 10,400 to 1500

# Continued, values first:
EC50 [1] [nM],IC90 [2] [nM],Compound
< 1,1500 to 10000,"CN1CCN(c2cc(C3CC3)cn3cc(CNc4cc(NC(=O)[C@H]5C[C@@H]5c5cc(Cl)ccn5)ncn4)nc23)CC1 (racemic) [Example I-192, rac-(1S*,2S*)-2-(4-chloropyridin-2-yl)-N-(6-(((6-cyclopropyl-8-(4-methylpiperazin-1-yl)imidazo[1,2-a]pyridin-2-yl)methyl)amino)pyrimidin-4-yl)cyclopropane-1-carboxamide]"
< 1,> 48000,"O=C(Nc1cc(NCc2cn3cc(C4CC4)ccc3n2)ccn1)[C@H]1C[C@@H]1c1cc(Cl)ccc1[N+](=O)[O-] (racemic) [Example I-223, rac-(1S*,2S*)-2-(5-chloro-2-nitrophenyl)-N-(4-(((6-cyclopropylimidazo[1,2-a]pyridin-2-yl)methyl)amino)pyridin-2-yl)cyclopropane-1-carboxamide]"
1 to 10,10000 to 48000,"CC(C)(O)c1cc(C2CC2)cn2cc(CNc3cc(NC(=O)[C@H]4C[C@@H]4c4cccc(Cl)c4)ncn3)nc12 [Example I-159, (1S,2S)-2-(3-chlorophenyl)-N-(6-(((6-cyclopropyl-8-(2-hydroxypropan-2-yl)imidazo[1,2-a]pyridin-2-yl)methyl)amino)pyrimidin-4-yl)cyclopropane-1-carboxamide]"
< 1,400 to 1500,"O=C(Nc1cc(NCc2cn3cc(C4CC4)cc(N4CCN5CCCC5C4)c3n2)ncn1)[C@H]1C[C@@H]1c1cccc(Cl)c1 (stereo partly drawn) [Example I-200, (1S,2S)-2-(3-chlorophenyl)-N-(6-(((6-cyclopropyl-8-(hexahydropyrrolo[1,2-a]pyrazin-2(1H)-yl)imidazo[1,2-a]pyridin-2-yl)methyl)amino)pyrimidin-4-yl)cyclopropane-1-carboxamide]"
< 1,< 400,"Cc1ccnc([C@H]2C[C@@H]2C(=O)Nc2cc(N[C@H](C)c3cn4cc(C5CC5)cc(N5CC6(COC6)CC5=O)c4n3)nc(C)n2)n1 [Example I-27, (1S,2S)—N-(6-(((R)-1-(6-cyclopropyl-8-(7-oxo-2-oxa-6-azaspiro[3.4]octan-6-yl)imidazo[1,2-a]pyridin-2-yl)ethyl)amino)-2-methylpyrimidin-4-yl)-2-(4-methylpyrimidin-2-yl)cyclopropane-1-carboxamide]"
